{"source": "paper PMC12131194", "about": "“Rational design, synthesis, and evaluation of novel polypharmacological compounds targeting NaV1.5, KV1.5, and K2P channels for atrial fibrillation” (The Journal of Biological Chemistry, 2025)", "molecular_target": "T1, human NaV1.5 (Homo sapiens, UniProt Q14524)", "T1 construct": "host or cells: HEK-293 (transient transfection)", "T1 sequence (Q14524 whole entry)": "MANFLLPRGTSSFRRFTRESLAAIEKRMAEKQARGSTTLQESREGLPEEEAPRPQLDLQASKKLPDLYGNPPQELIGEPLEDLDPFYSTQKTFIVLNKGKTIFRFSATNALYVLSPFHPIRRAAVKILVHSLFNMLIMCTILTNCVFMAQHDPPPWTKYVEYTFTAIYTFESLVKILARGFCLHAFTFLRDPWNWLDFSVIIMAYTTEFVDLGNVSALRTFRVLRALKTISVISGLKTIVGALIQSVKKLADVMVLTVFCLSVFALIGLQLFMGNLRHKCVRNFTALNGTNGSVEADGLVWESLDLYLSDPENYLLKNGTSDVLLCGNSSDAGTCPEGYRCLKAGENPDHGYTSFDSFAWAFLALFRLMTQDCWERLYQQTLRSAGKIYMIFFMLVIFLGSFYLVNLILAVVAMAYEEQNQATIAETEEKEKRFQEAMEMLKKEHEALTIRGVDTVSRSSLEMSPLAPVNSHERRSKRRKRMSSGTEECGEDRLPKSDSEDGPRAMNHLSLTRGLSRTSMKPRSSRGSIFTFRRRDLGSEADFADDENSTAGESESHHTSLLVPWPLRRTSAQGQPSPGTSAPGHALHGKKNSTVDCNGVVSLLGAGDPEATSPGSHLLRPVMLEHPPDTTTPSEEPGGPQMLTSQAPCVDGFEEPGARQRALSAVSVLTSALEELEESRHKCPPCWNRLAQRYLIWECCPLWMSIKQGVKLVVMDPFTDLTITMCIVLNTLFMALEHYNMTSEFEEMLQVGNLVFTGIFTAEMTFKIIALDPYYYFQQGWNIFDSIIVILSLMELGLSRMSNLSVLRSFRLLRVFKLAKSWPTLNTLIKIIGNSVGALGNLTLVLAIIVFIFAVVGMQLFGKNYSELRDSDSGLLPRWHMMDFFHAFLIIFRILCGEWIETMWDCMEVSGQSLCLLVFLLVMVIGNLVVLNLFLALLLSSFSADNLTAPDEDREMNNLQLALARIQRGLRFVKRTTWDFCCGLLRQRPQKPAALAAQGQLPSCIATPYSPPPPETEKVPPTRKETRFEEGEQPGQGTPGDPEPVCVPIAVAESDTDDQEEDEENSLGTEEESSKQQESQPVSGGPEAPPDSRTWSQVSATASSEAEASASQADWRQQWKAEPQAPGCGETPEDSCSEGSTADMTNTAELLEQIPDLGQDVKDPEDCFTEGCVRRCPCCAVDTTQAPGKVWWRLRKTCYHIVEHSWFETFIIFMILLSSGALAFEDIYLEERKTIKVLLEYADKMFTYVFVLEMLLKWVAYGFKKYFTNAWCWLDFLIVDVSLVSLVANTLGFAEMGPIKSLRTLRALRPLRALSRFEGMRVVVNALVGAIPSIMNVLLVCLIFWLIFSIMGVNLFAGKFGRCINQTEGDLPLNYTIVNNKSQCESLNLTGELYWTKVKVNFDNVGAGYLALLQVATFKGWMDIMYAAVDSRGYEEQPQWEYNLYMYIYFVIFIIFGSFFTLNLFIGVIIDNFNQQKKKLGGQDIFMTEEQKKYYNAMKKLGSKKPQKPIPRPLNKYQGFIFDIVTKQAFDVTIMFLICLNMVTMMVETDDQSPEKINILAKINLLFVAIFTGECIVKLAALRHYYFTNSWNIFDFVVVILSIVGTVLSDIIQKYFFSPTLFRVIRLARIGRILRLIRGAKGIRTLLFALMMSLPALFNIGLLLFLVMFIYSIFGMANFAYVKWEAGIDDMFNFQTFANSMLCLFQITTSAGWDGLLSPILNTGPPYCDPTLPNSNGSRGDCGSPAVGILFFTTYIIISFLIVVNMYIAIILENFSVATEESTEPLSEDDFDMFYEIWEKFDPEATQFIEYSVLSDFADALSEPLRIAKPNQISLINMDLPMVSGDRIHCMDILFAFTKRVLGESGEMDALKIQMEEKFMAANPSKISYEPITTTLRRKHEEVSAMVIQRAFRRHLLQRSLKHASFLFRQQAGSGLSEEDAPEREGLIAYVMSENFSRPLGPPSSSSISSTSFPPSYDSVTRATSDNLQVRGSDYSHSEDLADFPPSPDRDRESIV", "experiment": "Whole-cell patch-clamp in transfected HEK-293 cells, NaV1.5", "assay_type": "cell-based", "conditions": "10 μM and 100 μM, −10 mV", "method": "The human embryonic kidney 293 (HEK-293) cell line was obtained from the American Type Culture Collection. HEK-293 cells were cultured in Dulbecco’s modified Eagle’s medium (DMEM-F12, Invitrogen Life Technologies) supplemented with 5% (v/v) fetal bovine serum (FBS) (Thermo Fisher Scientific) and 1% antibiotics (penicillin 100 U/ml y streptomycin 100 μg/ml) (Gibco, Thermo Fisher). The cells were maintained at 37 °C and 5% CO2 atmosphere.\nFor the electrophysiological experiments, HEK-293 cells were transiently transfected with cDNA encoding human NaV1.5 (plasmid 145,374, Addgene), KV1.5 (NM_002234), and TASK-1 (NM_002246). […] The cells were incubated for 4 h in transfection medium OptiMEM (Invitrogen). […]\nFor Nav1.5, the effect of 6f at both concentrations was tested using a repetitive single test voltage pulse at −10 mV (during 20 ms) from a holding potential of −80 mV, with intervals of 5s between pulses. For Kv1.5 and TASK-1, ramp voltage protocols were applied with pulse intervals of 20 s, and the currents were analyzed at +40 mV.\nAfter recording currents with stable amplitudes, the cells were treated with 6f and applied from the bath solution. Currents were continuously recorded during repetitive pulses until a stable effect was achieved. […] The inhibition percentage was calculated as follows: Inℎibition (%) = 100 ∗ (Icontrol − Idrug)/Icontrol.", "data": [{"smiles": "CCCCN(CCCC)CC(=O)Nc1ccc(OC)cc1OC", "note": "[Compound 6f, 2-(dibutylamine)-N-(2,4-dimethoxiphenyl)acetamide]", "values": [{"measurement": "Blockade of NaV1.5 in HEK cells", "value": "significant blockade by 6f only at 100 μM"}]}]}
